Results as given in patent EP0067910B1, “Compounds and compositions for treatment of ocular hypertension” (priority 1981, dated 1982).
Where a name gives a salt, the structure may show the parent alone.

Assays:
[1] = system: normal healthy volunteers; experiment: Tonometry, tonography and pupil diameter after one drop to one eye of human subjects; assay type: in vivo; conditions: for intraocular pressures of the treated eyes: one drop of 0.1 percent (w/v), seven subjects
Procedure: Tonometry and tonography studies were performed on normal healthy volunteers using an instrument denominated The Alcon pneumatonograph, available from Alcon Laboratories, Forth Worth, Texas. One drop of proparacaine (0.5 percent w/v) was applied to each eye prior to taking tonometric readings. The tonometer was calibrated by a manometric standard prior to initiation of these studies and checked on an air standardizer on each day of use. […] Pupil diameters were measured under normal laboratory light.
Each drug discussed hereinafter was dissolved in sterile physiological saline.
The reported values are the means of the maximal responses based on the time courses of the responses in pairs of eyes of individual subjects. The numbers in parentheses denote the number of experimental subjects. Po (mm Hg) is the intraocular pressure in seated subjects, C (µl min^-1 mm Hg^-1) is the outflow facility, and F (ul min^-1) is the rate of formation of the aqueous humor (subject supine).

Solubility in water = assay type: physicochemical
conscious rabbits = experiment: Ocular response (intraocular pressure, pupil diameter) to a single topical application to one eye of conscious rabbits; assay type: in vivo; conditions: for Intraocular Pressure (mm Hg) Mean Δ: control eye minus exp. eye; for Intraocular Pressure (mm Hg) Mean Δ / Pupil Diameter (mm) Mean Δ / Intraocular Pressure (mm Hg) Exp. Eye / Pupil Diameter (mm) Exp. Eye: mean of maximal responses; for Pupil Diameter (mm) Mean Δ: difference between pairs of eyes; for Intraocular Pressure (mm Hg) Exp. Eye / Pupil Diameter (mm) Exp. Eye: single topical application; for Intraocular Pressure (mm Hg) Mean Δ Control-Exp. / Intraocular Pressure (mm Hg) Treated Eye: single application; for intraocular pressure / pupillary dilation: in 0.9 percent (w/v) physiological saline, summary of Tables IIIA, IIIB, IV and V
Source text: The effect of different concentrations of racemic a-methyl norepinephrine hydrochloride in 0.9 percent (w/v) physiological saline applied singly to one eye of conscious rabbits is summarized in Table I, below.
The reported pressure and pupillary responses are the means of the maximal responses based on the time courses of the responses in pairs of eyes of individual rabbits. The number in parentheses denotes the number of experimental subjects.
The mean time course of the ocular response to a 0.5 percent (w/v) solution of racemic a-methyl norepinephrine in 0.9 percent (w/v) physiological saline applied unilaterally to conscious rabbits is shown in Table II, below.
The drug was applied unilaterally (treated eye). In the third column is reported the mean pressure difference in pairs of eyes of individual rabbits. The number in parentheses denotes the number of experimental subjects.
Tables IIIA, IIIB, IV and V, below, summarize the experimental results using racemic a-methyl epinephrine, diester of a-methyl epinephrine, and diester of a-methyl norepinephrine in 0.9 percent (w/v) physiological saline.
The drug was applied unilaterally (Exp. Eye) at T = 0 hr. In the third column is reported the mean pressure difference between pairs of eyes of individual rabbits.

intraocular pressure = conditions: Annals of Ophthalmology, 3, No. 3, 282 (March 1971); cited from earlier work
[2] = human, in vivo
Procedure: The blood pressure and the heart rate of all subjects given the dipivaloyl a-methyl epinephrine were measured prior to and after administration of the drop. No decrease in blood pressure or heart rate was observed.

[3] = 0.1 percent (w/v), normal subjects
[4] = 0.5 percent (w/v), normal subjects
[5] = tonographic studies on human subjects
[6] = 0.5 percent (w/v), six rabbits, time 0 hours
[7] = 0.5 percent (w/v), six rabbits, time 1 hour
[8] = 0.5 percent (w/v), six rabbits, time 3 hours
[9] = 0.5 percent (w/v), six rabbits, time 4 hours
[10] = 0.5 percent (w/v) solution, eight rabbits, time 0 hours
[11] = 0.5 percent (w/v) solution, eight rabbits, time 0.5 hours
[12] = 0.5 percent (w/v) solution, eight rabbits, time 1.0 hours
[13] = 0.5 percent (w/v) solution, eight rabbits, time 3.0 hours
[14] = 0.5 percent (w/v) solution, eight rabbits, time 5.0 hours
[15] = 0.5 percent (w/v) solution, eight rabbits, time 24.0 hours
[16] = 0.5 percent (w/v), two normal subjects

CC(C)(C)NC[C@H](O)COc1nsnc1N1CCOCC1 [timolol maleate, reference compound]
intraocular pressure response [1, 3]: no demonstrable pressure response | intraocular pressure response [1, 4]: did give a pressure response | pupillary response ([1]; normal subjects, concentration not given): lack of pupillary response | outflow facility [1, 5]: no effect

CC(N)C(O)c1ccc(OC(=O)C(C)(C)C)c(OC(=O)C(C)(C)C)c1 (centres unmarked) [Compound 5, 4-(2-amino-1-hyaroxypropyt)-1,2-dipivaioyioxybenzene hydrochloride]
solubility in water (Solubility in water): freely soluble in water

CC(N)C(O)c1ccc(O)c(O)c1 (racemic) [α-Methyl Norepinephrine, a-methyl norepinephrine]
Intraocular Pressure (mm Hg) Mean Δ (conscious rabbits; 0.1 percent wt. by volume): 0.9 ± 0.3 (4) mm Hg | Pupil Diameter (mm) Mean Δ (conscious rabbits; 0.1 percent wt. by volume): 0.9 ± 0.4 (4) mm | Intraocular Pressure (mm Hg) Exp. Eye (conscious rabbits; 0.1 percent wt. by volume): 20.6 ± 1.3 mm Hg | Pupil Diameter (mm) Exp. Eye (conscious rabbits; 0.1 percent wt. by volume): 4.6 ± 0.47 mm | Intraocular Pressure (mm Hg) Mean Δ (conscious rabbits; 0.3 percent wt. by volume): 4.5 ± 0.3 (4) mm Hg | Pupil Diameter (mm) Mean Δ (conscious rabbits; 0.3 percent wt. by volume): 1.2 ± 0.63 (4) mm | Intraocular Pressure (mm Hg) Exp. Eye (conscious rabbits; 0.3 percent wt. by volume): 16.5 ± 0.3 mm Hg | Pupil Diameter (mm) Exp. Eye (conscious rabbits; 0.3 percent wt. by volume): 4.4 ± 0.9 mm | Intraocular Pressure (mm Hg) Mean Δ Control-Exp. (conscious rabbits; [6]): 0.3 ± 0.3 (6) mm Hg | Intraocular Pressure (mm Hg) Treated Eye (conscious rabbits; [6]): 22.8 ± 1.4 (6) mm Hg | Intraocular Pressure (mm Hg) Mean Δ Control-Exp. (conscious rabbits; [7]): 2.8 ± 0.9 (6) mm Hg | Intraocular Pressure (mm Hg) Treated Eye (conscious rabbits; [7]): 20.2 ± 1.6 (6) mm Hg | Intraocular Pressure (mm Hg) Mean Δ Control-Exp. (conscious rabbits; [8]): 7.2 ± 0.9 (6) mm Hg | Intraocular Pressure (mm Hg) Treated Eye (conscious rabbits; [8]): 15.8 ± 1.3 (6) mm Hg | Intraocular Pressure (mm Hg) Mean Δ Control-Exp. (conscious rabbits; [9]): 6.3 ± 1.2 (6) mm Hg | Intraocular Pressure (mm Hg) Treated Eye (conscious rabbits; [9]): 16.7 ± 1.2 (6) mm Hg | Intraocular Pressure (mm Hg) Mean Δ (conscious rabbits; 0.5 percent wt. by volume): 6.0 ± 0.3 (4) mm Hg | Pupil Diameter (mm) Mean Δ (conscious rabbits; 0.5 percent wt. by volume): 0.9 ± 0.5 (4) mm | Intraocular Pressure (mm Hg) Exp. Eye (conscious rabbits; 0.5 percent wt. by volume): 15.5 ± 0.8 mm Hg | Pupil Diameter (mm) Exp. Eye (conscious rabbits; 0.5 percent wt. by volume): 3.9 ± 0.4 mm | Intraocular Pressure (mm Hg) Mean Δ (conscious rabbits; 0.8 percent wt. by volume): 6.8 ± 0.7 (6) mm Hg | Pupil Diameter (mm) Mean Δ (conscious rabbits; 0.8 percent wt. by volume): 1.1 ± 0.30 (6) mm | Intraocular Pressure (mm Hg) Exp. Eye (conscious rabbits; 0.8 percent wt. by volume): 15.7 ± 1.1 mm Hg | Pupil Diameter (mm) Exp. Eye (conscious rabbits; 0.8 percent wt. by volume): 4.8 ± 0.42 mm | Intraocular Pressure (mm Hg) Mean Δ (conscious rabbits; 1.0 percent wt. by volume): 7.4 ± 0.7 (10) mm Hg | Pupil Diameter (mm) Mean Δ (conscious rabbits; 1.0 percent wt. by volume): 3.4 ± 0.4 (10) mm | Intraocular Pressure (mm Hg) Exp. Eye (conscious rabbits; 1.0 percent wt. by volume): 14.3 ± 0.6 mm Hg | Pupil Diameter (mm) Exp. Eye (conscious rabbits; 1.0 percent wt. by volume): 7.2 ± 0.51 mm | lowering intraocular pressure (intraocular pressure): inactive

CNC(C)C(O)c1ccc(O)c(O)c1 (stereo not drawn) [α-methyl Epinephrine Hydrochloride, a-methyl epinephrine hydrochloride]
Intraocular Pressure (mm Hg) Mean Δ Control-Exp. (conscious rabbits; [10]): −0.1 ± 0.2 mm Hg | Intraocular Pressure (mm Hg) Treated Eye (conscious rabbits; [10]): 22.7 ± 0.6 mm Hg | Intraocular Pressure (mm Hg) Mean Δ Control-Exp. (conscious rabbits; [11]): 3.3 ± 0.8 mm Hg | Intraocular Pressure (mm Hg) Treated Eye (conscious rabbits; [11]): 19.4 ± 1.3 mm Hg | Intraocular Pressure (mm Hg) Mean Δ Control-Exp. (conscious rabbits; [12]): 5.9 ± 0.6 mm Hg | Intraocular Pressure (mm Hg) Treated Eye (conscious rabbits; [12]): 15.9 ± 1.2 mm Hg | Intraocular Pressure (mm Hg) Mean Δ Control-Exp. (conscious rabbits; [13]): 6.0 ± 0.8 mm Hg | Intraocular Pressure (mm Hg) Treated Eye (conscious rabbits; [13]): 14.1 ± 0.5 mm Hg | Intraocular Pressure (mm Hg) Mean Δ Control-Exp. (conscious rabbits; [14]): 5.5 ± 0.7 mm Hg | Intraocular Pressure (mm Hg) Treated Eye (conscious rabbits; [14]): 14.6 ± 0.6 mm Hg | Intraocular Pressure (mm Hg) Mean Δ Control-Exp. (conscious rabbits; [15]): 0.6 ± 0.1 mm Hg | Intraocular Pressure (mm Hg) Treated Eye (conscious rabbits; [15]): 22.9 ± 0.9 mm Hg | intraocular pressure (conscious rabbits): reducing intraocular pressure | pupillary dilation (conscious rabbits): lack of pupillary dilation | intraocular pressure in the treated eyes [1, 16]: significant decrease | mydriatic response [1, 16]: not associated with a mydriatic response | time to development of the decrease of intraocular pressure [1, 16]: ≤ 1 h | lowering intraocular pressure (intraocular pressure): inactive

CNCC(O)c1ccc(OC(=O)C(C)(C)C)c(OC(=O)C(C)(C)C)c1 (centres unmarked) [dipivaloyl epinephrine, reference compound]
intraocular pressure response [1, 3]: no effect on intraocular pressure | intraocular pressure response [1, 4]: significant decrease of intraocular pressure | mydriasis [1, 4]: marked mydriasis | intraocular pressure response at 1 hour ([1]; normal subjects, 1 hour after application): no significant pressure response

CNC(C)C(O)c1ccc(OC(=O)C(C)(C)C)c(OC(=O)C(C)(C)C)c1 (centres unmarked) [diester of a-methyl epinephrine]
intraocular pressure (conscious rabbits): reducing intraocular pressure | pupillary dilation (conscious rabbits): lack of pupillary dilation

CNC(C)C(O)c1ccc(OC(=O)C(C)(C)C)c(OC(=O)C(C)(C)C)c1 (centres unmarked) [4-(2-N-methylamino-1-hydroxypropyl)-1,2-dipivaloyloxybenzene hydrochloride]
pupillary response ([1]; 0.1 percent (w/v), normal subject): almost complete lack of pupillary response | intraocular pressures of the treated eyes ([1]; 24 hours): recovered | intraocular pressures of the treated eyes ([1]; at 1 and 5 hours): significantly decreased | outflow facility [1, 5]: increase | rate of formation of the aqueous humor [1, 5]: reduction

CC(N)C(O)c1ccc(OC(=O)C(C)(C)C)c(OC(=O)C(C)(C)C)c1 (centres unmarked) [diester of a-methyl norepinephrine]
intraocular pressure (conscious rabbits): reducing intraocular pressure | pupillary dilation (conscious rabbits): lack of pupillary dilation

CNC(C)C(O)c1ccc(OC(=O)C(C)(C)C)c(OC(=O)C(C)(C)C)c1 (centres unmarked) [dipivaloyl a-methyl epinephrine]
intraocular pressure of the treated eye ([1]; one drop of 0.05 percent (w/v), three normal human subjects, at 1 and 3 hours): decreased | blood pressure [2]: No decrease | heart rate [2]: No decrease
